In brackets after ≈: the same amount, converted by molar mass. Entries after “also recorded” stand apart in the source; their conditions may differ. Like-named read-outs stand apart in the source and are kept apart here. Values belong to the compound of their own block, whether it stands above or below them.
Experiments:
[1] = test system: MCF7
[2] = test system: Hela
[3] = test system: PC3
[4] = test system: Pa6; assay: MIC determination; format: cell-based, Pseudomonas aeruginosa; settings: read-out: MIC
Text: (§1) MIC (minimum inhibition concentration) is given in μM and AD (agar diffusion zones of inhibition are given in mm from Kirby-Bauer Petri dish growth inhibition studies).

[5] = Stability assay in media; format: physicochemical
Text: The initial antibacterial assay shown in Table 6 indicated activity against select strains of Pseudomonas and/or Acinetobacter. However, the reduction of activity at higher concentrations but excellent activity at lower, drug like concentrations, raised the concern that either the conjugates were unstable or some of the siderophore component remained in the final conjugate and at higher concentrations, the siderophore growth promotion would compete for the sideromycin growth inhibition. The possible instability was considered to be due to the presence of the short succinate linker that upon bacterial uptake and iron removal would promote intramolecular release of the antibiotic component and regeneration of the siderophore with subsequent growth promotion effects. […] Meanwhile, the assays were repeated with intentional addition (titration with) of the siderophore component itself to the sideromycins. […] Therefore, each of these mixed ligand sideromycins has been resynthesized and rigorously purified. […] MIC antibacterial assays are being repeated with the newly prepared samples. […] Thus, the mixed ligand system has the potential to be a very potent and selective anti-Acinetobacter sideromycin.

[6] = test system: A. baumannii ATCC 17961; assay: MIC determination; format: cell-based, Acinetobacter baumannii; settings: read-out: MIC
Text: (§2) Table 3 that was included in the first Example 4 section provides antibacterial data for the first synthetic sideromycins we prepared and studied. The second Example 4 section elaborated and expanded on that data with inclusion of representative antibacterial data in the text and associated pictures of Petri dish assays. MIC (minimum inhibition concentration) is given in μM and AD (agar diffusion zones of inhibition are given in mm from Kirby-Bauer Petri dish growth inhibition studies).

[7] = test system: Pa-Da-1304 CF patient isolate; assay: MIC determination; format: cell-based, Pseudomonas aeruginosa
Text: as §1
We obtained a clinical isolate of Pseudomonas from a cystic fibrosis patient.

[8] = test system: Pa4; assay: MIC determination; format: cell-based, Pseudomonas aeruginosa
Text: as §2

[9] = test system: P. aeruginosa KW799/wt; assay: MIC determination; format: cell-based, Pseudomonas aeruginosa
Text: as §2

[10] = test system: Pseudomonas aeruginosa 01 (Pa01); assay: MIC determination; format: cell-based
Text: as §2

[11] = test system: strains of Pseudomonas and Acinetobacter; assay: Antibacterial activity, general statements; format: cell-based; settings: general statements of the text
Method: Antibiotic activity was determined using agar diffusion assays against representative Gram-negative bacteria, including Pseudomonas aeruginosa (Pa6), and several multidrug resistant forms of Acinetobacter baumannii. Representative results are shown in Table 1 and a corresponding picture of an actual petri dish showing the agar diffusion results (FIG. 4). […].

[12] = Cytotoxicity assay; settings: human, PC3 cells
[13] = Cytotoxicity assay; settings: human, MCF7 cells
[14] = Cytotoxicity assay; settings: human, HeLa cells
[15] = test system: Acinetobacter baumannii ATCC 17961; assay: Agar diffusion (Kirby-Bauer) assay, with and without hydrogel; format: cell-based; settings: Acinetobacter; FIG. 8, 9, 10
Text: as §2
We investigated whether the sideromycin absorbed in the gel be able to diffuse out of the gel and into the agar to effect antibacterial growth. As a control, the sideromycin alone, without gel, was added in a separate 9 mm well, as usual.
The second question was whether the sideromycin continue to be released and be able to effect bacterial growth inhibition over extended periods. Thus, additional identical agar plates were prepared and stored at 4° C. for 24, 48 and 72 hours to allow diffusion of the sideromycin (control and gel forms) into the agar before allowing the bacteria to grow in an incubator. Then after each time period, the Petri dishes were incubated at 37° C. for 20 hours to promote bacteria growth in the agar. […] The study has been extended to as long as 168 hours (one week) with retention of antibiotic effectiveness.

[16] = test system: A. baumannii BAA1797; assay: Antibacterial activity of MG-1-189 and sulbactam; settings: single agent
[17] = test system: A. baumannii BAA1710; assay: Antibacterial activity of MG-1-189 and sulbactam; settings: single agent
[18] = test system: Pseudomonas aeruginosa KW799/wt; assay: Agar diffusion (Kirby-Bauer) assay; format: cell-based; settings: wild type Pseudomonas; FIG. 8, 9, 12
Text: as §2

[19] = test system: Pseudomonas aeruginosa KW799/61; format: cell-based; settings: outer membrane permeable mutant; FIG. 9 center panel
Text: as §1

[20] = test system: A. baumannii BAA1800; assay: Antibacterial activity of MG-1-189 and sulbactam; settings: single agent
[21] = test system: A. baumannii BAA1793; assay: Antibacterial activity of MG-1-189 and sulbactam; settings: single agent
[22] = test system: Acinetobacter; assay: Murine Survival Experiment with Acinetobacter; format: in vivo; settings: 50 mg/kg IV at +30 min and +4 hr
Method: In vivo data for murine survival with Acinetobacter is shown in Table 9 below and graphically in FIG. 14. In the experiments, 10^8 Acinetobacter was administered IP at time 0 on Day 1, and antibiotic was administered twice IV at +30 min and +4 hr

[23] = test system: P. aeruginosa KW799/61 (permeability mutant); assay: microbe, parasite or virus in culture; format: cell-based, Pseudomonas aeruginosa; settings: Table 5
Text: as §1

- IC50 [1]: 11 µM
- IC50 [2]: > 20 µM
- IC50 [3]: 15 µM
- MIC ([4]; beta-lactamase producer strain): > 50 µM
- stability in media (in words) [5]: showed the desired stability
- MIC [6]: 0.025 µM (≈ 0.0266 µg/mL)
- MIC ([7]; clinical isolate from a cystic fibrosis patient): > 50 µM
- MIC [8]: > 50 µM
- MIC ([9]; read-out: MIC): 0.2 µM (≈ 0.213 µg/mL)
SMILES: O=C(CCC(=O)N(CCCCNC(=O)c1cccc(O)c1O)CCCNC(=O)c1cccc(O)c1O)NCCCCCN(O)C(=O)CCCC(=O)NC(C(=O)NC1C(=O)N2C(C(=O)O)=C(Cl)CCC12)c1ccccc1 (centres unmarked) [MG-1-227]

- MIC [10]: 0.39 to 0.55 µM
- MIC ([10]; Pseudomonas aeruginosa, Table 6, read-out: MIC): 0.39 to 0.55 µM (≈ 0.491 to 0.693 µg/mL)
- MIC ([10]; Pseudomonas aeruginosa, read-out: MIC): 0.2 µM (≈ 0.252 µg/mL)
- MIC ([4]; Pseudomonas aeruginosa, Table 6): > 50 µM
- stability in media (in words) ([5]; incubated in media under conditions that mimic the antibacterial assays, LC/MS): expected loss of acetyl groups
- MIC ([7]; Pseudomonas aeruginosa, clinical isolate from a cystic fibrosis patient): > 50 µM
- MIC [9]: 0.14 to 0.2 µM
- MIC ([9]; Pseudomonas aeruginosa, KW799/WT, Table 6, read-out: MIC): 0.14 to 0.2 µM (≈ 0.176 to 0.252 µg/mL)
- MIC ([9]; listed as MG-1-239, read-out: MIC): 0.05 µM (≈ 0.063 µg/mL)
SMILES: CC(=O)Oc1cccc(C(=O)NCCCCN(CCCNC(=O)c2cccc(OC(C)=O)c2OC(C)=O)C(=O)CCC(=O)NCCCCCN(OC(C)=O)C(=O)CCC(=O)N[C@@H](C(=O)N[C@@H]2C(=O)N3C2SC(C)(C)[C@@H]3C(=O)O)c2ccccc2)c1OC(C)=O (some centres unmarked) [MG-1-121]
- antibacterial activity (in words) [11]: broad spectrum activity
- IC50 [12]: > 20 µM
- IC50 [13]: > 20 µM
- IC50 [14]: > 20 µM

SMILES: N[C@@H](C(=O)N[C@@H]1C(=O)N2C(C(=O)O)=C(Cl)CC[C@H]12)c1ccccc1 [loracarbef, reference compound]
- zones of inhibition (in words) [15]: inactive; also recorded: no inhibition
- MIC ([10]; Table 5, read-out: MIC): >200 µM
- MIC ([10]; Table 7, read-out: MIC): >200 µM
- Antibacterial activity (MIC) [16]: >25 µM
- Antibacterial activity (MIC) [17]: >25 µM
- MIC ([4]; Table 5): >200 µM
- zones of inhibition (in words) [18]: inactive
- zones of inhibition (in words) [19]: very small zone of inhibition
- Antibacterial activity (MIC) [20]: >25 µM
- MIC ([6]; Table 5, head prints A. baumannii only): >200 µM
- MIC ([6]; Table 7): >200 µM
- Antibacterial activity (MIC) [21]: >25 µM
- murine survival (surviving mice) ([22]; D 1, 10^8 Acinetobacter IP): 6
- murine survival (surviving mice) ([22]; D 2): 2
- murine survival (surviving mice) ([22]; D 3): 2
- murine survival (surviving mice) ([22]; D 4): 2
- murine survival (surviving mice) ([22]; D 5): 2
- murine survival (surviving mice) ([22]; D 6): 2
- murine survival (surviving mice) ([22]; D 7): 2
- MIC ([7]; Table 5): >200 µM
- susceptibility of the clinical isolate (in words) ([7]; preliminary tests): resistant
- MIC [23]: 50 µM (≈ 17.5 µg/mL)
- MIC ([8]; Table 5): >200 µM
- MIC ([9]; Table 5, read-out: MIC): >200 µM
- MIC ([9]; Table 7, read-out: MIC): >200 µM

Source: patent publication US11149046B2, “Antibacterial sideromycins” (Hsiri Therapeutics, Inc., priority 2014, dated 2021)
